Assay results: patent publication US12029748B2, “Synergistic composition for maintenance of healthy balance of microflora” (KIMBERLY-CLARK WORLDWIDE, INC., priority 2017, dated 2024)
Where a SMILES comes first, the peptide text is derived from it.

Legend:
L. crispatus and E. coli = test: Therapeutic Effect Protocol: L. crispatus / E. coli co-culture, ratio after 36 hours; type: cell-based, Lactobacillus crispatus; E. coli; conditions: for Therapeutic Efficacy Results (Lactobacillus/E. coli) 0.10%: nitrogen compound 0.10 wt/vol % with 1.0 wt/vol % α methyl-D glucoside (10:1); for Therapeutic Efficacy Results (Lactobacillus/E. coli) 0.10% / Therapeutic Efficacy Results (Lactobacillus/E. coli) 0.50% / Therapeutic Efficacy Results (Lactobacillus/E. coli) 1.00%: 36 hours anaerobic co-culture, 37° C.; for Therapeutic Efficacy Results (Lactobacillus/E. coli) 0.50%: nitrogen compound 0.50 wt/vol % with 1.0 wt/vol % α methyl-D glucoside (2:1); for Therapeutic Efficacy Results (Lactobacillus/E. coli) 1.00%: nitrogen compound 1.00 wt/vol % with 1.0 wt/vol % α methyl-D glucoside (1:1); for Therapeutic effect when ratio α methyl-D glucoside : nitrogen compound is at least about 2:1, but not at 1:1: ratio at least about 2:1, not 1:1; for Therapeutic effect at ratio 2:1 and 10:1, but not at 1:1: ratios 2:1 and 10:1, not 1:1; for Therapeutic effect of other saccharides: saccharide other than α methyl-D glucoside, by itself or with a nitrogen containing compound
Experimental: As used herein the term “therapeutic effect” refers to the ability of the compositions and formulations of the present invention to stimulate the growth of Lactobacillus relative E. coli measured according to the Therapeutic Effect Protocol described below. Generally, therapeutic effect is expressed as a ratio of Lactobacillus to E. coli and is desirably greater than about 2, more preferably greater than about 20 and more desirably greater than about 100.
The data in Table 1 was tested according to the Therapeutic Effect Protocol as described further herein. The nitrogen compounds were tested for their therapeutic efficacy at three different concentrations when combined with α methyl-D glucoside (1% wt/vol %). The concentrations of the nitrogen containing compounds that were tested were 1% wt/vol %, 0.5% wt/vol %, and 0.1% wt/vol %.
Colonies of L. crispatus and E. coli were prepared as follows. A colony of L. crispatus was transferred to 7 ml de Man, Rogosa & Sharpe (MRS) broth and incubated anaerobically (using BD GasPak EZ anaerobe container system with indicator) at 37° C. without shaking for 18-20 hours. A colony of E. coli was transferred to 5 ml Tryptic Soy Broth (TSB) and incubated aerobically (shaking at 100 rpm) at 37° C. for 18-20 hours.
Colonies were then inoculated as follows. Bacterial cultures were gently vortexed and 1 mL of each culture was transferred to a corresponding 2.0 mL micro-centrifuge tube and then centrifuged for two minutes at 14,500 rpm. The cultural supernatant was removed and the cell pellet was re-suspended in 1 mL of 0.95% (wt/vol %) saline. […] For L. crispatus, the pellet was re-suspended in 1 mL of 0.95% saline to achieve ˜10^7-10^8 cfu/mL. For E. coli, the pellet was re-suspended in 1 mL of 0.95% saline to achieve ˜10^8-10^9 cfu/mL.
Media were prepared as follows.
(§1) All of the ingredients in Table 2 were combined and the pH was adjusted to 6.5. […] To evaluate the effect of various nitrogen containing therapeutic agents on the growth of bacteria, the LAPT-g media, prepared as described above, was supplemented with various nitrogen containing compound therapeutic agents to a final test concentration between 0.1 and 1.0%. As initial screening measures, solubility and initial pH of each composition were checked. If a specific composition was insoluble (as detected by visual indication of precipitates or turbidity), then no further therapeutic efficacy testing was undertaken on that composition. Additionally, if the initial pH of the composition was below 5.5 (“Low”) or was above 6.5 (“High”), then no further therapeutic efficacy testing was undertaken on that composition.
Five milliliters (5 mL) of each medium was transferred to a test tube in duplicates for subsequent inoculation. A master mixture of L. crispatus and E. coli, prepared as described above, was prepared in 1,000:1 ratio. Each (5 ml) test tube was inoculated with the master mixture to give 10^5-10^6 total CFU L. crispatus and 100-1,000 total CFU E. coli per tube.
To establish a negative control, one tube was vortexed and 100 μL was removed to determine the initial cell concentrations by serial dilutions and plating (2 plates per dilution). L. crispatus is selected on MRS agar plates incubated anaerobically at 37° C. for two days. E. coli is selected on TSA plates incubated aerobically at 37° C. for one day. The co-cultures were incubated in an anaerobic container with BD GasPaks at 37° C. for 36 hours.
The effect of the α methyl-D glucoside and the nitrogen containing compound therapeutic agents on the ratio of L. crispatus to E. coli was measured 36 hours after inoculation and a final pH of the test solutions was recorded. The co-culture tube was vortexed and 100 μL was removed to determine the final cell concentrations by serial dilutions and plating (2 plates per dilution). L. crispatus is selected on MRS agar plates incubated anaerobically at 37° C. for two days.

[1] = Initial pH screening of the composition; type: physicochemical; conditions: for I pH (initial pH), 0.10%: nitrogen compound 0.10 wt/vol % with 1.0 wt/vol % α methyl-D glucoside in medium; for I pH (initial pH), 0.50%: nitrogen compound 0.50 wt/vol % with 1.0 wt/vol % α methyl-D glucoside in medium; for I pH (initial pH), 1.00%: nitrogen compound 1.00 wt/vol % with 1.0 wt/vol % α methyl-D glucoside in medium
Description: Each composition in Table 1 went through initial screening measures of solubility and initial pH (“I pH”). […] When a specific concentration of a nitrogen containing compound was insoluble, the initial and final pH (“F pH”) of the combined composition was not measured and accordingly are each marked as “NM.” Additionally, initial pH of the composition was checked as a screening measure. The initial pH was marked as either Low (“L”), High (“H”), or Pass (“P”). A Low initial pH corresponds to an initial pH being less than 5.5, a High initial pH corresponds to an initial pH being greater than 6.5, and a Pass initial pH corresponds to the pH being at or between 5.5-6.5. […] As part of the Therapeutic Effect Protocol, a final pH was also measured after the compositions that were tested against the Lactobacillus and E. coli.
as §1

Compound | Therapeutic Efficacy Results (Lactobacillus/E. coli) 0.10% (L. crispatus and E. coli) | Therapeutic Efficacy Results (Lactobacillus/E. coli) 0.50% (L. crispatus and E. coli) | Therapeutic Efficacy Results (Lactobacillus/E. coli) 1.00% (L. crispatus and E. coli) | I pH (initial pH), 0.10% [1] | I pH (initial pH), 0.50% [1] | I pH (initial pH), 1.00% [1] | also measured
CCC(N)C(=O)O (racemic) [DL-a-amino-n-butyric acid] | 0.34 | 100 | 4.44 | P (a Pass initial pH corresponds to the pH being at or between 5.5-6.5) | P (a Pass initial pH corresponds to the pH being at or between 5.5-6.5) | P (a Pass initial pH corresponds to the pH being at or between 5.5-6.5) | Therapeutic effect when ratio α methyl-D glucoside : nitrogen compound is less than 2:1 (1:1) (L. crispatus and E. coli; with α methyl-D glucoside, ratio 1:1): provided a therapeutic effect; Therapeutic effect when ratio α methyl-D glucoside : nitrogen compound is at least about 2:1, but not at 1:1 (L. crispatus and E. coli; with α methyl-D glucoside): provided a therapeutic effect
C[C@H](N)C(=O)N[C@@H](CC(=O)O)C(=O)O [Ala-Asp] (H-Ala-Asp-OH) | >100 | – | – | P (a Pass initial pH corresponds to the pH being at or between 5.5-6.5) | L (A Low initial pH corresponds to an initial pH being less than 5.5) | L (A Low initial pH corresponds to an initial pH being less than 5.5) | Therapeutic effect when ratio α methyl-D glucoside : nitrogen compound is at least about 2:1, but not at 1:1 (L. crispatus and E. coli; with α methyl-D glucoside): provided a therapeutic effect
C[C@H](N)C(=O)N[C@@H](CCC(=O)O)C(=O)O [Ala-Glu] (H-Ala-Glu-OH) | 10.67 | – | – | P (a Pass initial pH corresponds to the pH being at or between 5.5-6.5) | L (A Low initial pH corresponds to an initial pH being less than 5.5) | L (A Low initial pH corresponds to an initial pH being less than 5.5) | Therapeutic effect when ratio α methyl-D glucoside : nitrogen compound is at least about 2:1, but not at 1:1 (L. crispatus and E. coli; with α methyl-D glucoside): provided a therapeutic effect
C[C@H](N)C(=O)N[C@@H](Cc1cnc[nH]1)C(=O)O [Ala-His] (H-Ala-His-OH) | >133 | 6.59E+02 | – | P (a Pass initial pH corresponds to the pH being at or between 5.5-6.5) | P (a Pass initial pH corresponds to the pH being at or between 5.5-6.5) | H (a High initial pH corresponds to an initial pH being greater than 6.5) | Therapeutic effect when ratio α methyl-D glucoside : nitrogen compound is at least about 2:1, but not at 1:1 (L. crispatus and E. coli; with α methyl-D glucoside): provided a therapeutic effect; Therapeutic effect at ratio 2:1 and 10:1, but not at 1:1 (L. crispatus and E. coli; with α methyl-D glucoside): provided a therapeutic effect
O=C1NC(=O)C(=O)C(=O)N1 [Alloxan] | 4.83 | 1.45E+04 | – | P (a Pass initial pH corresponds to the pH being at or between 5.5-6.5) | P (a Pass initial pH corresponds to the pH being at or between 5.5-6.5) | L (A Low initial pH corresponds to an initial pH being less than 5.5) | Therapeutic effect when ratio α methyl-D glucoside : nitrogen compound is at least about 2:1, but not at 1:1 (L. crispatus and E. coli; with α methyl-D glucoside): provided a therapeutic effect; Therapeutic effect at ratio 2:1 and 10:1, but not at 1:1 (L. crispatus and E. coli; with α methyl-D glucoside): provided a therapeutic effect
N.O.O.O.O.O=P([O-])(O)O.[Na+] [Ammonium Sodium Phosphate] | 0.25 | – | – | – | – | – | –
Nc1ccn([C@@H]2O[C@H](CO)[C@@H](O)[C@H]2O)c(=O)n1 [Cytidine] | >103 | 3.85E+03 | 3.09 | – | – | – | –
N=C(N)NCCC[C@@H](N)C(=O)O [D-Arginine] | 0.35 | – | – | – | – | – | –
N[C@H](CO)C(=O)O [D-Serine] | 0.06 | <1.00 | 0.03 | – | – | – | –
O=C[C@@H](O)[C@H](O)[C@H](O)CO [D-arabinose] | – | – | – | – | – | – | Therapeutic effect of other saccharides (L. crispatus and E. coli): not able to provide a therapeutic effect
NCCCC(=O)O [DL-gamma-amino-n-butyric acid] | 0.836 | 246.6 | 1.86 | – | – | – | –
NCC(=O)O [Glycine] | 0.56 | 20.5 | 950 | – | – | – | –
NCCc1c[nH]cn1 [Histamine] | – | – | – | H (a High initial pH corresponds to an initial pH being greater than 6.5) | H (a High initial pH corresponds to an initial pH being greater than 6.5) | H (a High initial pH corresponds to an initial pH being greater than 6.5) | –
N=C(N)NCCC[C@H](N)C(=O)O [L-Arginine] | 0.58 | – | – | – | – | – | –
N[C@@H](CC(=O)O)C(=O)O [L-Aspartic Acid] | 1.36 | – | – | – | – | – | –
N[C@@H](CCC(=O)O)C(=O)O [L-Glutamic Acid] | 2.81 | – | – | – | – | – | –
O=C(O)[C@@H]1CCCN1 [L-Proline] | 1.88 | 0.55 | 1.25 | – | – | – | –
CCCCCN [N-Amylamine] | – | – | – | H (a High initial pH corresponds to an initial pH being greater than 6.5) | H (a High initial pH corresponds to an initial pH being greater than 6.5) | H (a High initial pH corresponds to an initial pH being greater than 6.5) | –
O=C(O)CC[C@@H](C(=O)O)N1C(=O)c2ccccc2C1=O [n-phthaloyl-l-glutamic acid] | – | – | – | L (A Low initial pH corresponds to an initial pH being less than 5.5) | L (A Low initial pH corresponds to an initial pH being less than 5.5) | L (A Low initial pH corresponds to an initial pH being less than 5.5) | –
OC[C@H]1O[C@H](OC[C@H]2O[C@H](OC[C@H]3O[C@H](O[C@]4(CO)O[C@H](CO)[C@@H](O)[C@@H]4O)[C@H](O)[C@@H](O)[C@@H]3O)[C@H](O)[C@@H](O)[C@H]2O)[C@H](O)[C@@H](O)[C@H]1O [stachyose] | – | – | – | – | – | – | Therapeutic effect of other saccharides (L. crispatus and E. coli): not able to provide a therapeutic effect
Ammonium Citrate | >260 | 4.93E−04 | 3.15E−08 | – | – | – | –
